target: Human Factor D (Homo sapiens (Human), UniProt P00746); assay: Human Factor D Assay; format: biochemical; settings: Table 6; Factor D 80 nM, substrate Z-L-Lys-SBz; read-out: IC50
Procedure, shortened: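 Thioester substrate Z-L-Lys-SBz (100 μM) with Ellman's reagent DTNB (100 μM) reports activity of 80 nM human serum-derived enzyme, kinetically at 405 nm over 30 min. Compound preincubated 5 min, room temperature, pH 7.5 Tris/1 M NaCl; IC50 by nonlinear fit of rates.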

Sequence of Human Factor D (P00746 26-253): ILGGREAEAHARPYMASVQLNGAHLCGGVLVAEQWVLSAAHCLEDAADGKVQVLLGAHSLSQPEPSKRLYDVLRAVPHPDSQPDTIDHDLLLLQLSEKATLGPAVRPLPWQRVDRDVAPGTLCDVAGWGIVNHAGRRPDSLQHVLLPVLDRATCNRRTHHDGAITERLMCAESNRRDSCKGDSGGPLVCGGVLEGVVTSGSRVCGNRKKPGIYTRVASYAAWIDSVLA

Compound	IC50 [µM]
CC(=O)c1nn(CC(=O)N2[C@H]3C[C@@]3(CN3CCN(C(C)=O)CC3)C[C@H]2C(=O)Nc2nc(Br)ccc2C)c2ccc(-c3cnc(C)nc3)cc12 [Compound 79, (1S,3S,5S)-2-(2-(3-acetyl-5-(2-methylpyrimidin-5-yl)-1H-indazol-1-yl)acetyl)-5-((4-acetylpiperazin-1-yl)methyl)-N-(6-bromo-3-methylpyridin-2-yl)-2-azabicyclo[3.1.0]hexane-3-carboxamide]	1 to 10
CC(=O)c1nn(CC(=O)N2[C@H](C(=O)NCCC(C)(C)C)C[C@@]3(C)C[C@@H]23)c2c(C)cc(-c3cnc(C)nc3)cc12 [Compound 80, (1R,3S,5R)-2-(2-(3-Acetyl-7-methyl-5-(2-methylpyrimidin-5-yl)-1H-indazol-1-yl)acetyl)-N-(3,3-dimethylbutyl)-5-methyl-2-azabicyclo[3.1.0]hexane-3-carboxamide]	< 1
CC(=O)c1nn(CC(=O)N2[C@H](C(=O)NCCOC(F)(F)F)C[C@@]3(C)C[C@@H]23)c2c(C)cc(-c3cnc(C)nc3)cc12 [Compound 81, (1R,3S,5R)-2-(2-(3-Acetyl-7-methyl-5-(2-methylpyrimidin-5-yl)-1H-indazol-1-yl)acetyl)-5-methyl-N-(2-(trifluoromethoxy)ethyl)-2-azabicyclo[3.1.0]hexane-3-carboxamide]	< 1
COc1cccc(NC(=O)[C@@H]2C[C@@]3(C)C[C@H]3N2C(=O)Cn2nc(C(C)=O)c3cc(-c4cnc(C)nc4)cc(C)c32)n1 [Compound 82, (1R,3S,5R)-2-(2-(3-Acetyl-7-methyl-5-(2-methylpyrimidin-5-yl)-1H-indazol-1-yl)acetyl)-N-(6-methoxypyridin-2-yl)-5-methyl-2-azabicyclo[3.1.0]hexane-3-carboxamide]	< 1
CC(=O)c1nn(CC(=O)N2C[C@H](F)C[C@H]2C(=O)Nc2cccc(O)n2)c2ccc(-c3cnc(C)nc3)cc12 [Compound 83, (2S,4R)-1-(2-(3-Acetyl-5-(2-methylpyrimidin-5-yl)-1H-indazol-1-yl)acetyl)-4-fluoro-N-(6-hydroxypyridin-2-yl)pyrrolidine-2-carboxamide]	1 to 10
COCc1ccc(Br)c(NC(=O)[C@@H]2C[C@@]3(C)C[C@H]3N2C(=O)Cn2nc(C(C)=O)c3cc(-c4cnc(C)nc4)cc(COC)c32)n1 [Compound 86, (1R,3S,5R)-2-(2-(3-acetyl-7-(methoxymethyl)-5-(2-methylpyrimidin-5-yl)-1H-indazol-1-yl)acetyl)-N-(3-bromo-6-(methoxymethyl)pyridin-2-yl)-5-methyl-2-azabicyclo[3.1.0]hexane-3-carboxamide]	> 10
CC(=O)c1nn(CC(=O)N2[C@H](C(=O)Nc3nc(Br)ccc3C)C[C@@]3(CN4CCNCC4)C[C@@H]23)c2c(C)cc(-c3cnc(C)nc3)cc12 [Compound 88, (1R,3S,5R)-2-(2-(3-Acetyl-7-methyl-5-(2-methylpyrimidin-5-yl)-1H-indazol-1-yl)acetyl)-N-(6-bromo-3-methylpyridin-2-yl)-5-(piperazin-1-ylmethyl)-2-azabicyclo[3.1.0]hexane-3-carboxamide]	< 1
CC(=O)c1nn(CC(=O)N2[C@H](C(=O)Nc3nc(Br)ccc3C)C[C@@]3(CN4CC5(CCC5)C4)C[C@@H]23)c2c(C)cc(-c3cnc(C)nc3)cc12 [Compound 89, (1R,3S,5R)-5-(2-Azaspiro[3.3]heptan-2-ylmethyl)-2-(2-(3-acetyl-7-methyl-5-(2-methylpyrimidin-5-yl)-1H-indazol-1-yl)acetyl)-N-(6-bromo-3-methylpyridin-2-yl)-2-azabicyclo[3.1.0]hexane-3-carboxamide]	< 1
CC(=O)c1nn(CC(=O)N2[C@H]3C[C@@]3(C)C[C@H]2C(=O)Nc2nc(Br)ccc2C)c2c(C3CC3)cc(-c3cnc(C)nc3)cc12 [Compound 90, (1S,3S,5S)-2-(2-(3-acetyl-7-cyclopropyl-5-(2-methylpyrimidin-5-yl)-1H-indazol-1-yl)acetyl)-N-(6-bromo-3-methylpyridin-2-yl)-5-methyl-2-azabicyclo[3.1.0]hexane-3-carboxamide]	< 1
CC(=O)c1nn(CC(=O)N2[C@H](C(=O)Nc3nc(Br)ccc3CN(C)C)C[C@@]3(C)C[C@@H]23)c2ccc(-c3cnc(C)nc3)cc12 [Compound 91]	< 1
C=CCOC[C@@]12C[C@@H](C(=O)Nc3nc(Br)ccc3C=C)N(C(=O)Cn3nc(C(C)=O)c4cc(-c5cnc(C)nc5)ccc43)[C@@H]1C2 [Compound 93, (1R,3S,5S)-2-(2-(3-Acetyl-5-(2-methylpyrimidin-5-yl)-1H-indazol-1-yl)acetyl)-5-((allyloxy)methyl)-N-(6-bromo-3-vinylpyridin-2-yl)-2-azabicyclo[3.1.0]hexane-3-carboxamide]	< 1
CNC[C@@]12C[C@@H](C(=O)Nc3nc(Br)ccc3C)N(C(=O)Cn3nc(C(C)=O)c4cc(-c5cnc(C)nc5)cc(C)c43)[C@@H]1C2 [Compound 94, (1R,3S,5R)-2-(2-(3-Acetyl-7-methyl-5-(2-methylpyrimidin-5-yl)-1H-indazol-1-yl)acetyl)-N-(6-bromo-3-methylpyridin-2-yl)-5-((methylamino)methyl)-2-azabicyclo[3.1.0]hexane-3-carboxamide]	< 1
CC(=O)c1nn(CC(=O)N2[C@H](C(=O)Nc3nc(Br)ccc3C)C[C@@]3(CNC(=O)C4=C(F)CCC4)C[C@@H]23)c2c(C)cc(-c3cnc(C)nc3)cc12 [Compound 95, (1R,3S,5R)-2-(2-(3-Acetyl-7-methyl-5-(2-methylpyrimidin-5-yl)-1H-indazol-1-yl)acetyl)-N-(6-bromo-3-methylpyridin-2-yl)-5-((2-fluorocyclopent-1-enecarboxamido)methyl)-2-azabicyclo[3.1.0]hexane-3-carboxamide]	< 1
CC(=O)NC[C@@]12C[C@@H](C(=O)Nc3nc(Br)ccc3C)N(C(=O)Cn3nc(C(C)=O)c4cc(-c5cnc(C)nc5)cc(C)c43)[C@@H]1C2 [Compound 96, (1R,3S,5R)-5-(Acetamidomethyl)-2-(2-(3-acetyl-7-methyl-5-(2-methylpyrimidin-5-yl)-1H-indazol-1-yl)acetyl)-N-(6-bromo-3-methylpyridin-2-yl)-2-azabicyclo[3.1.0]hexane-3-carboxamide]	< 1
CC(=O)c1nn(CC(=O)N2[C@H](C(=O)Nc3nc(Br)ccc3C)C[C@@]3(CNC(=O)c4ccccc4F)C[C@@H]23)c2c(C)cc(-c3cnc(C)nc3)cc12 [Compound 97, (1R,3S,5R)-2-(2-(3-Acetyl-7-methyl-5-(2-methylpyrimidin-5-yl)-1H-indazol-1-yl)acetyl)-N-(6-bromo-3-methylpyridin-2-yl)-5-((2-fluorobenzamido)methyl)-2-azabicyclo[3.1.0]hexane-3-carboxamide]	< 1
COC[C@@]12C[C@@H](C(=O)Nc3nc(Br)ccc3C)N(C(=O)Cn3nc(C(C)=O)c4cc(-c5cnc(C)nc5)cc(C)c43)[C@@H]1C2 [Compound 98, (1R,3S,5S)-2-(2-(3-Acetyl-7-methyl-5-(2-methylpyrimidin-5-yl)-1H-indazol-1-yl)acetyl)-N-(6-bromo-3-methylpyridin-2-yl)-5-(methoxymethyl)-2-azabicyclo[3.1.0]hexane-3-carboxamide]	< 1
COC(=O)N[C@H](C(=O)NC[C@@]12C[C@@H](C(=O)Nc3nc(Br)ccc3C)N(C(=O)Cn3nc(C(C)=O)c4cc(-c5cnc(C)nc5)cc(C)c43)[C@@H]1C2)C(C)C [Compound 99, methyl ((S)-1-((((lR,3S,5R)-2-(2-(3-acetyl-7-methyl-5-(2-methylpyrimidin-5-yl)-1H-indazol-1-yl)acetyl)-3-((6-bromo-3-methylpyridin-2-yl)carbamoyl)-2-azabicyclo[3.1.0]hexan-5-yl)methyl)amino)-3-methyl-1-oxobutan-2-yl)carbamate]	< 1
CC(=O)c1nn(CC(=O)N2[C@H](C(=O)Nc3nc(Br)ccc3C)C[C@@]3(CN(C)C)C[C@@H]23)c2c(C)cc(-c3cnc(C)nc3)cc12 [Compound 100, (1R,3S,5R)-2-(2-(3-acetyl-7-methyl-5-(2-methylpyrimidin-5-yl)-1H-indazol-1-yl)acetyl)-N-(6-bromo-3-methylpyridin-2-yl)-5-((dimethylamino)methyl)-2-azabicyclo[3.1.0]hexane-3-carboxamide]	< 1
CC(=O)c1nn(CC(=O)N2[C@H](C(=O)Nc3nc(Br)ccc3C)C[C@@]3(CNS(C)(=O)=O)C[C@@H]23)c2c(C)cc(-c3cnc(C)nc3)cc12 [Compound 101, (1R,3S,5R)-2-(2-(3-Acetyl-7-methyl-5-(2-methylpyrimidin-5-yl)-1H-indazol-1-yl)acetyl)-N-(6-bromo-3-methylpyridin-2-yl)-5-(methylsulfonamidomethyl)-2-azabicyclo[3.1.0]hexane-3-carboxamide]	< 1
CC(=O)c1nn(CC(=O)N2[C@H](C(=O)Nc3nc(Br)ccc3C)C[C@@]3(CNC(=O)CC(F)(F)F)C[C@@H]23)c2c(C)cc(-c3cnc(C)nc3)cc12 [Compound 102, (1R,3S,5R)-2-(2-(3-Acetyl-7-methyl-5-(2-methylpyrimidin-5-yl)-1H-indazol-1-yl)acetyl)-N-(6-bromo-3-methylpyridin-2-yl)-5-((3,3,3-trifluoropropanamido)methyl)-2-azabicyclo[3.1.0]hexane-3-carboxamide]	< 1
CC(=O)c1nn(CC(=O)N2[C@H](C(=O)Nc3nc(Br)ccc3C)C[C@@]3(C)C[C@@H]23)c2ccc(-c3cnc(CN(C)C)nc3)cc12 [Compound 103, (1R,3S,5R)-2-(2-(3-Acetyl-5-(2-((dimethylamino)methyl)pyrimidin-5-yl)-1H-indazol-1-yl)acetyl)-N-(6-bromo-3-methylpyridin-2-yl)-5-methyl-2-azabicyclo[3.1.0]hexane-3-carboxamide]	< 1
CC(=O)c1nn(CC(=O)N2[C@H](C(=O)Nc3nc(Br)c(F)cc3C)C[C@@]3(C)C[C@@H]23)c2cnc(-c3cnc(C)nc3)cc12 [Compound 104, (1R,3S,5R)-2-(2-(3-Acetyl-5-(2-methylpyrimidin-5-yl)-1H-pyrazolo[3,4-c]pyridin-1-yl)acetyl)-N-(6-bromo-5-fluoro-3-methylpyridin-2-yl)-5-methyl-2-azabicyclo[3.1.0]hexane-3-carboxamide]	< 1

— patent US11084800B2 (Achillion Pharmaceuticals, Inc., priority 2017, dated 2021)
